# Measurements taken from patent publication US12036200B2, “Bismuth-thiol compositions and methods for treating wounds” (Microbion Corporation, priority 2018, dated 2024).
# Entries after “also recorded” stand apart in the source; their conditions may differ.
# Key:
# [1] = system: Staphylococcus aureus (S. aureus); experiment: Staphylococcus aureus mouse model: efficacy of BisEDT on spleen and wound titer (Example 4); type: in vivo
# Procedure: Establishment of Mouse Model: A luminescent strain of Staphylococcus aureus (S. aureus) was administered intravenously to adult, female, Swiss Webster mice and 48 hours was allowed for a biofilm to form. Mice were treated daily intravenously with 100 μL of serial dilutions of BisEDT. In this example, BisEDT was used as a suspension (w:v) (e.g. 150, 375, or 750 μg/mL) of drug particles in diluent, which is composed of 3% methylcellulose/0.5% polysorbate 80/10 mM sodium chloride/10 mM sodium phosphate, pH 7.4.
# Imaging Studies: Mice were imaged using Silhouette to determine wound size and volume, and In Vivo Imaging Systems (IVIS) Lumina X5 to quantitate bioluminescence.
# Terminal colony forming units (CFU) were determined by plating homogenized tissue from the wound bed and in the spleen. Mice were euthanized and wound tissue and spleens were harvested. Tissue samples were weighed and placed into microtubes containing sterile phosphate buffer and homogenized. The homogenate was then serially diluted and plated to determine CFU/g tissue.
# An initial study evaluated the effect of BisEDT suspension on CFUs in the spleen and wound bed. The study occurred over 11 days with 9 days of treatment. The BisEDT suspension was administered to 30 (n=5 mice/group) mice at concentrations of 2500, 250, 25, 2.5, 0.25, 0.25, 0.025 μg/mL. A comparator control was vehicle, or diluent, and 50% DMSO in PBS.
# A subsequent study evaluated the effect of higher concentrations of BisEDT suspension on CFUs in the spleen and wound bed. The study occurred over 12 days with 10 days of treatment. BisEDT suspension was administered to 20 (n=5 mice/group) at concentrations of 10, 5, 2.5, and 0.75 mg/mL. A negative control was mice that were untreated, and a positive control was mice that were treated with Prontosan. […] Complete inhibition was observed compared to the untreated control (FIG. 3). Further, treatment with 5 mg/mL BisEDT reduced CFUs by 1.5-2 logs, greater than the positive prontosan control.
# [2] = system: Patients with Moderate to Severe Diabetic Foot Infection; experiment: Phase 1b/2a study of topical BisEDT: wound surface area by 3D digital photographs (Example 6); type: in vivo, human; details: end of treatment, test of cure and end of study
# Procedure: Adjunctive local administration of BisEDT was tested for its efficacy in resolving both infection and critical colonization, thereby removing these barriers to wound repair and closure. This represents a fundamental, clinically meaningful benefit.
# Topical BisEDT suspension and placebo were used in combination with SOC systemic antibiotics (such as levofloxacin) for a duration of 2-3 weeks. […] BisEDT, when used in conjunction with systemic antibiotics, for a duration of […] (3× per week) may be beneficial in resolving both infection and critical colonization, therefore enabling wound repair and closure, a fundamental, clinically meaningful benefit.
# [3] = system: subjects with a moderate to severe DFI; experiment: Phase 1b/2a DFI study (Example 7): clinical response; type: in vivo, human; details: MITT Population, BisEDT dose groups vs placebo
# Procedure: Methodology: This was a randomized, double-blind, placebo-controlled, multicenter study that was planned to be conducted in 2 parts. In Part 1, subjects were enrolled into escalating dose cohorts (BisEDT at concentrations of 150, 375, and 750 μg/mL resulting in doses of 3, 7.5, and 15 μg/cm^2) (N=16 per cohort) at a ratio of 3:1 (BisEDT to placebo).
# In Part 1, subjects received either topical application of BisEDT or topical application of placebo, applied directly to the infected ulcer, 3 times per week, for a minimum of 2 weeks (ie, 6 doses) and up to a maximum of 3 weeks (ie, 9 doses). […] The determination to stop topical BisEDT therapy after a minimum of 2 weeks (ie, 6 doses) was at the discretion of the Principal Investigator and based on the resolution of clinical findings of infection.
# Efficacy: The following clinical and microbiological efficacy outcomes were assessed: • Proportion of subjects with a clinical cure of infection 2 weeks following the end of dosing, TOC with BisEDT or placebo. […]
# At the TOC, EOT, and EOS visits, the cure rate (cured vs not cured) was analyzed using an Exact Logistic Regression model with covariates for treatment dose group, the 8-item baseline wound score, and the interaction of treatment group and baseline wound score. […]
# [4] = system: subjects with a moderate to severe DFI; experiment: Phase 1b/2a DFI study (Example 7): microbiological response, colonization, reinfection, relapse; type: in vivo, human
# Procedure: Efficacy: The following clinical and microbiological efficacy outcomes were assessed: • Proportion of subjects with a clinical cure of infection 2 weeks following the end of dosing, TOC with BisEDT or placebo. Subjects were classified into one of the following groups: cured (resolution of all clinical signs and symptoms of infection or sufficient improvement such that additional antimicrobial therapy was not required), failure (insufficient resolution of at least one of the initial signs and symptoms of infection, or the need for any additional or alternative antimicrobial therapy, or the need for surgical treatment of the infection), or indeterminate (assessment not possible for any reason). • Proportion of subjects with a clinical cure at EOT with BisEDT or placebo. • Proportion of subjects with a confirmed or presumed microbiological cure 2 weeks following the end of dosing, TOC. Subjects were classified into one of the following groups: confirmed eradication (all of the original pathogens were absent), presumed eradication (there was no available material for culture but the infection clinically responded to treatment), persistence (presence of a pathogen isolated at baseline), or indeterminate (inability to determine microbiological response). • Proportion of subjects with a confirmed or presumed microbiological cure at the EOT and EOS. At the EOS visit, additional classification groups included: colonization (isolation of a new organism that was not present on the initial culture but the wound was not clinically infected); reinfection (isolation of a new organism that was not present on the initial culture and the wound was clinically infected) or relapse (the same organism that was present on the initial culture was again isolated, after an intervening confirmed [sterile culture] or presumed [no material to culture] microbiological response and the wound was clinically infected). • Change from baseline in the Biofilm Score at EOT and TOC. • Proportion of subjects that underwent lower-extremity amputation involving the infected foot. • Proportion of subjects needing any infection-related surgery (ie, lower-extremity amputation, incision and drainage of a new abscess, or soft tissue or bone resection) after treatment had started. • Change from baseline in the 8-item DFI wound score at EOT, TOC, and EOS. • Percent reduction in ulcer size at EOS and each study visit.
# Microbiological Response: The distribution of microbiological response outcome categories (confirmed eradication, presumed eradication, persistence, and indeterminate) are descriptively summarized by treatment group using counts and percentages at the TOC, EOT, and EOS visits. The eradication rate (confirmed+presumed vs the rest) was analyzed using the same methodology as clinical response. Analyses are presented for the ME Population.
# Colonization, Reinfection, and Relapse: At the EOS visit, the number and percentage of subjects with a colonization, reinfection, or relapse are tabulated by treatment group for the ME Population.
# Microbiologic assessment. Cultures were collected at baseline and as needed for the treatment of the subject. Tissue samples were shipped to a central laboratory where the presence of viable microorganisms was determined by standard microbiological culture methods and included speciation. […] The susceptibility of bacterial isolates to BisEDT was also determined, but was not reported to investigators.
# [5] = system: subjects with a moderate to severe DFI; experiment: Phase 1b/2a DFI study (Example 7): biofilm score; type: in vivo, human; details: ME Population, BisEDT dose groups vs placebo
# Source text: Biofilm Response: The distribution of absolute scores at the EOT and TOC visits are descriptively summarized using counts and percentages by treatment group. Treatments were compared using the Cochran Mantel Haenszel mean score test statistic, and the p-value is presented. Additionally, shift tables showing individual subject changes from baseline to EOT and TOC visits are presented. Analyses are presented for the ME Population.
# Biofilm response: The following categories were used: score 0, no bacteria observed; 1, single individual cells; 2, small micro-colonies (˜10 cells); 3, large micro-colonies (˜100 cells); 4, continuous film; 5, thick continuous film. Subjects with no debridement material as a result of their DFI healing were given a score of 0. The distribution of absolute scores at the EOT and TOC visits are descriptively summarized using counts and percentages by treatment group. Treatments were compared using the Cochran Mantel Haenszel mean score test statistic, and the p-value is presented. Additionally, a shift table showing individual subject changes from baseline to EOT and TOC visits is presented. Analyses are presented for the ME Population.
# [6] = Phase 1b/2a DFI study (Example 7): pharmacokinetic evaluation, blood concentration of bismuth; type: in vivo, human; details: topical BisEDT 3, 7.5, 15 μg/cm^2; whole blood concentrations
# Procedure: The primary objective of Part 1 of this study and the planned primary objective of Part 2 of this study was to evaluate the safety and tolerability of topically administered BisEDT composition as adjunct to standard of care (including systemic antibiotic therapy) in subjects with a moderate to severe DFI. […]
# The mean bismuth concentration by day for the PK Concentration Population included: 8 subjects on Day 1 predose (only 2 subjects with detectable levels of 0.582 and 0.548 ng/mL, hypothesized to be from undisclosed use of bismuth containing medications or from dressings containing bismuth, such as Xeroform®, as blood was collected before treatment with BisEDT); 8 subjects on Day 3 predose (only 1 subject with a detectable level of 0.525 ng/mL); 8 subjects on Day 5 predose (only 1 subject with a detectable level of 0.701 ng/mL); and 8 subjects on Day 8 predose (only 1 subject with a detectable level of 0.513 ng/mL). […] Bismuth levels were not measured in samples that were erroneously processed to plasma by the 1 site that enrolled the majority of the subjects in the PK study, as bismuth levels are expected to be 15 to 20 times lower in plasma samples compared to whole blood samples and would be well below the lower limit of quantitation for the assay method; no PK parameters were calculated.
# [7] = Phase 1b/2a DFI study (Example 7): safety and tolerability; type: in vivo, human
# Source text: The primary objective of Part 1 of this study and the planned primary objective of Part 2 of this study was to evaluate the safety and tolerability of topically administered BisEDT composition as adjunct to standard of care (including systemic antibiotic therapy) in subjects with a moderate to severe DFI. The secondary objectives of Part 1 of this study and the planned secondary objectives of Part 2 of this study were: To evaluate the effect of adjunctive BisEDT composition on resolution of infection; To evaluate the effect of adjunctive BisEDT composition on eradication of pathogens; To evaluate the effect of BisEDT composition on eradication of biofilms; To evaluate the effect of BisEDT composition on wound healing; To evaluate the effect of BisEDT composition for the prevention of lower extremity amputations; To evaluate the effect of BisEDT composition for the prevention of infection related surgery; To evaluate the effect of BisEDT composition on duration of systemic antibiotic use; To evaluate the effect of BisEDT composition on length of hospital stay; To evaluate the systemic absorption and pharmacokinetics of topically administered BisEDT composition.
# [8] = Particle size of microparticulate BisEDT, Nanosizer/Zetasizer Nano-S (Example 1); type: physicochemical; details: resuspended in 2% Pluronic F-68, sonicated
# Procedure: The dried particulate matter was characterized to assess the particle size properties. Briefly, microparticles were resuspended in 2% Pluronic® F-68 (BASF, Mt. Olive, NJ) and the suspension was sonicated for 10 minutes in a water bath sonicator at standard setting prior to analysis using a Nanosizer/Zetasizer Nano-S particle analyzer (model ZEN1600 (without zeta-potential measuring capacity), Malvern Instruments, Worcestershire, UK) according to the manufacturer's recommendations.
# [9] = EOS visit, ME Population, BisEDT dose groups vs placebo
# [10] = topical doses of 3, 7.5, and 15 μg/cm^2
compound,measurement,setting,value
"C1C[S][Bi]([S]CC[S][Bi]2[S]CC[S]2)[S]1 [BisEDT, bismuth-1,2-ethanedithiol]",mice exhibiting no infection (spleen),[1]; 2.5 mg/mL BisEDT (FIG. 4),three
same,reduction of wound titer compared to diluent,"[1]; 2500 μg/mL BisEDT suspension, mice, 9 days of treatment (FIG. 1)",approximately five
same,reduction of CFU compared to untreated control,"[1]; 10 mg/mL BisEDT, mice, 10 days of treatment, complete inhibition (FIG. 3)",more than eight
same,"proportion of subjects with >50% reduction in wound surface area from baseline, compared to placebo",[2],larger proportion
same,"clinical response, comparison of treatment groups",[3]; EOT visit,No difference between treatment groups was observed
same,"clinical response, comparison of treatment groups",[3]; TOC visit,No difference between treatment groups was observed
same,"colonization, reinfection, and relapse, comparison of treatment groups",[4]; [9],No difference between treatment groups was observed
same,"microbiological response, comparison of treatment groups",[4]; [9],No difference between treatment groups was observed
same,"microbiological response, comparison of treatment groups","[4]; EOT visit, ME Population, BisEDT dose groups vs placebo",No difference between treatment groups was observed
same,"microbiological response, comparison of treatment groups","[4]; TOC visit, ME Population, BisEDT dose groups vs placebo",No difference between treatment groups was observed
same,reduction of reinfection or relapse with BisEDT compared to placebo,"[4]; all dose groups combined 12.5% vs placebo 33.3%, EOS visit",approximately one-third
same,"biofilm response, comparison of treatment groups",[5]; EOT visit,No difference in biofilm response at the EOT visit between treatment groups was observed
same,"biofilm response, comparison of treatment groups",[5]; TOC visit,No difference in biofilm response at the TOC visit between treatment groups was observed
same,systemic exposure,[6],very little systemic exposure; also recorded: does not appear to exhibit any relevant systemic exposure; also recorded: limited systemic exposure
same,TEAEs and SAEs related to study drug,[7]; [10],None of the TEAEs and SAEs occurring in the study were considered related to study drug
same,safety signals,[7]; [10],No safety signals were identified
same,safety and tolerability,"[7]; topical doses of 3, 7.5, and 15 μg/cm^2, 3 times per week, 2-3 weeks",safe and well tolerated
same,peak VMD,[8],about 1.3 microns
